Test results taken from article PMC5902495, “Synthesis of Symmetrical Tetrameric Conjugates of the Radiolanthanide Chelator DOTPI for Application in Endoradiotherapy by Means of Click Chemistry” (Frontiers in Chemistry, 2018).

How the values were obtained:
[1] = 25°C, I = 0.1 M Me4NCl; ref Lázár et al., [1991]; cited from earlier work
[2] = 25°C, I = 0.1 M Me4NCl; ref Lázár et al., [1991]; cited from earlier work; remark: listed apart in the source
[3] = 25°C, I = 0.1 M Me4NCl, ref Šimeček et al., [2013], cited from earlier work
[4] = 25°C, I = 0.1 M Me4NCl; ref Lázár et al., [1991]; cited from earlier work; remark: listed apart in the source
[5] = Stability and protonation constants of Cu^II complexes (spectrophotometry, pH-potentiometry); assay type: physicochemical; settings: 25°C, 0.15 M NaCl
Protocol: Stability constant of Cu(DOTPI) complex was determined by spectrophotometry, studying the Cu^II-DOTPI systems at the absorption band of Cu^II-complex at [H^+] = 0.01– 0.2 M over the wavelength range of 400–800 nm. Concentrations of Cu^II and DOTPI were 1 mM. The H^+ concentration in the samples was adjusted by addition of calculated amounts of 2.0 M HCl, while ionic strength was not constant in these samples. Samples were kept at 25°C for a week. Absorbance values were determined at 9 wavelengths (550, 575, 600, 625, 650, 675, 700, 725, and 750 nm). For calculation of stability and protonation constants of Cu(DOTPI), molar absorptivities of CuCl2, and Cu(HxL) species (wherein x = 0, 1, 2 …5) were determined by recording the spectra of 1.0 × 10^−3, 2.0 × 10^−3 and 3.0 × 10^−3 M solutions of CuCl2 and Cu(DOTPI) in the pH range of 1.7–11.7. The protonation constants of the complexes Cu(DOTPI) and the stability and protonation constants of the dinuclear Cu2(DOTPI) complexes were determined by pH-potentiometric titrations, made at 1:1 and 2:1 metal to ligand concentration ratios.
The stability constant of the Cu(DOTPI(Chx)4) complex has been determined by spectrophotometry with the use of competition reactions between DOTPI(Chx)4 and EDTA for the Cu^2+ at pH = 5.0. The concentration of Cu(EDTA) was 0.2 mM, while that of the DOTPI(Chx)4 was varied between 0.1 and 1.0 mM (5 samples). The samples were kept at 25°C for 2 weeks. The absorbance values and the molar absorptivities of CuCl2, Cu(DOTPI(Chx)4), and Cu(EDTA) have been determined at 11 wavelength (300, 304, 308, 312, 316, 320, 324, 328, 332, 336, and 340 nm) values between 300 and 340 nm. The molar absorptivities of CuCl2, Cu(DOTPI(Chx)4), and Cu(EDTA) were deteremined in 0.05, 0.1, 0.2, 0.3, and 0.4 mM solutions. The absorbance and pH values were determined in the samples after the equilibrium was reached (the time needed to reach the equilibria was determined by spectrophotometry). The spectrophotometric measurements were made with the use of 1.0 cm cells with a Cary 1E spectrophotometer at 25°C. The protonation constants of Cu(DOTPI(Chx)4) complex were determined by pH-potentiometric titrations at 1:1 metal to ligand molar ratio.
For pH measurements and titrations, a Metrohm 785 DMP Titrino titration workstation and a Metrohm-6.0233.100 combined electrode were used. Equilibrium measurements were carried out at a constant ionic strength (0.15 M NaCl) in 6 mL samples at 25°C. The solutions were stirred, and constantly purged with N2. The titrations were performed in a pH range of 1.7–11.7. KH-phthalate (pH = 4.005) and borax (pH = 9.177) buffers were used to calibrate the pH meter. For calculation of [H^+] from measured pH values, the method proposed by Irving et al. was used (Irving et al., [1967]). A 0.01 M HCl solution was titrated with the standardized NaOH solution in the presence of 0.1 M NaCl. Differences between the measured (pHread) and calculated pH (–log[H^+]) values were used to obtain the equilibrium H^+ concentration from the pH values, measured in the titration experiments. For the equilibrium calculations, the stoichiometric water ionic product (pKw) is also needed to calculate [H^+] values in basic conditions. […] For the calculation of the equilibrium constants the program PSEQUAD (Zekany and Nagypal, [1985]) was used.
2. Protonation and complexation equilibria of DOTPI and
The protonation processes of the DOTPI and DOTPI(Chx)4, ligands have been studied by pH-potentiometry. The protonation constants (logKiH) of ligands are defined according to Eq. (1).
The stability and protonation constants of DOTPI and DOTPI(Chx)4 complexes with several metal ions were determined by pH-potentiometric and UV/Vis spectrophotometric, methods.
The stability and protonation constants of the metal complexes formed with the DOTPI and […]

In the case of `O=C(O)CCP(=O)(O)CN1CCN(CP(=O)(O)CCC(=O)O)CCN(CP(=O)(O)CCC(=O)O)CCN(CP(=O)(O)CCC(=O)O)CC1` [DOTPI, 1,4,7,10-tetraazacyclododecane-1,4,7,10-tetrakis[methylene(2-carboxyethylphosphinic acid)]], the “logKML, ZnL” value [1] is given as 18.57, the “logKML, CaL” value [2] is given as 12.48 and the “Σlog KiH (total basicity)” value ([3]; distant carboxylate groups of DOTPI not considered) is given as 24.91. The “log K1H” value [3] was 11.58, the “log K2H” value [3] was 8.90 and the “log K3H” value [3] was 5.65. For the same compound, the “log K4H” value [3] was 4.98, the “log K5H” value [3] was 4.61 and the “log K6H” value [3] was 4.07. For the same compound, the “log K7H” value [3] was 3.12, the “log K8H” value [3] was 1.31 and the “logKML, CuL” value [4] was 23.11. For the same compound, the “protonation constant Cu2LH” value [5] was 5.04 (3), the “protonation constant Cu2LH2” value [5] was 4.71 (5) and the “protonation constant CuH2L” value [5] was 5.07 (1). The “protonation constant CuH3L” value [5] was 4.49 (2), the “protonation constant CuH4L” value [5] was 4.20 (2) and the “protonation constant CuH5L” value [5] was 2.35 (3). For the same compound, the “protonation constant CuHL” value [5] was 5.68 (2) and the “stability constant of dinuclear complex Cu2L” value [5] was 4.49 (6).
